Source: ChEMBL document CHEMBL6083190, “Synthesis and mechanistic study of Aβ42 C-terminus domain derived tetrapeptides that inhibit Alzheimer's Aβ-aggregation-induced neurotoxicity” (Bioorg Med Chem Lett, 2024)
Activity calls are given as the source filed them. No cut-off for these calls is given here. Non-standard residues stand in square brackets, D forms with d. Residues, ends and D or L forms follow the SMILES beside them. ξ: configuration not given here. Tle = CC(C)(C)[C@H](N)C(=O)O; ξOic = O=C(O)C1CC2CCCCC2N1; Aib = CC(C)(N)C(=O)O

Columns and labels:
PC-12 [1] = assay: Protection against amyloid beta-induced neurotoxicity in rat PC-12 cells assessed as cell viability at 2 uM by MTT assay (reference value: 63.6 %); type: functional; details: read-out: Activity
PC-12 [2] = assay: Protection against amyloid beta-induced neurotoxicity in rat PC-12 cells assessed as cell viability at 4 uM by MTT assay (reference value: 63.6 %); type: functional; details: read-out: Activity
PC-12 [3] = assay: Protection against amyloid beta-induced neurotoxicity in rat PC-12 cells assessed as cell viability at 10 uM by MTT assay (reference value: 63.6 %); type: functional; details: read-out: Activity
[4] = Inhibition of amyloid beta-induced neurotoxicity in rat PC-12 cells at 2 uM by MTT assay relative to control; type: functional
[5] = Inhibition of amyloid beta-induced neurotoxicity in rat PC-12 cells at 4 uM by MTT assay relative to control; type: functional
[6] = Inhibition of amyloid beta-induced neurotoxicity in rat PC-12 cells at 10 uM by MTT assay relative to control; type: functional
[7] = biological target: Amyloid-beta precursor protein (Homo sapiens) (UniProt P05067); assay: Inhibition of amyloid beta (1 to 42) (unknown origin) self-aggregation assessed as absence of fibrillar aggregates at 1:5 amyloid-beta:compound concentration ratio incubated for 72 hrs by high-resolution transmission electron microscopic analysis
Amyloid-beta precursor protein (Homo sapiens), sequence (P05067 whole entry): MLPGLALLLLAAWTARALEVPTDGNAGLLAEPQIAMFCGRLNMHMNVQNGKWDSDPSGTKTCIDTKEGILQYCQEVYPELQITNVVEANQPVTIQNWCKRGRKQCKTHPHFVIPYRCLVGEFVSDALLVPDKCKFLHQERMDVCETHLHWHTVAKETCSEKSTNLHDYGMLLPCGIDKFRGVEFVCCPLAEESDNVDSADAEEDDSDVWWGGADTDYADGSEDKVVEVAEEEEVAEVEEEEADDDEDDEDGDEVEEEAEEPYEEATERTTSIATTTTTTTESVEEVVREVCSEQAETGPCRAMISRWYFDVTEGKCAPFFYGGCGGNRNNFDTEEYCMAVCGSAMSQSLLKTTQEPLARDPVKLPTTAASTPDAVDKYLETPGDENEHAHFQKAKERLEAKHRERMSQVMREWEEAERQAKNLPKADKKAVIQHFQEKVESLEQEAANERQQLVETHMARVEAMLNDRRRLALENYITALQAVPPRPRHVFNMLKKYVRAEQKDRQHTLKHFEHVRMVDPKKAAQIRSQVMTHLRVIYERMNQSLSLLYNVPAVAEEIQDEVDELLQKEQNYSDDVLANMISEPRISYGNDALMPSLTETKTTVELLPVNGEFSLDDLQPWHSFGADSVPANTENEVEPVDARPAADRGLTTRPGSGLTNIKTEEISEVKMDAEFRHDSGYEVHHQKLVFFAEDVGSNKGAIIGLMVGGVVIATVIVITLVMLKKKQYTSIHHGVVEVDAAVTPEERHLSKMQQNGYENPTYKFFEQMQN

[8] = biological target: Amyloid-beta precursor protein (Homo sapiens) (UniProt P05067); assay: Inhibition of amyloid beta (1 to 42) (unknown origin) self-aggregation assessed as absence of fibrillar aggregates at 1:5 amyloid-beta:compound concentration ratio incubated for 72 hrs by scanning transmission electron microscopic analysis
[9] = biological target: Amyloid-beta precursor protein (Homo sapiens) (UniProt P05067); assay: Inhibition of amyloid beta (1 to 42) (unknown origin) self-aggregation assessed as absence of fibrillar aggregates at 1:5 amyloid-beta:compound concentration ratio measured immediately by high-resolution transmission electron microscopic analysis
[10] = biological target: Amyloid-beta precursor protein (Homo sapiens) (UniProt P05067); assay: Inhibition of amyloid beta (1 to 42) (unknown origin) self-aggregation assessed as absence of fibrillar aggregates at 1:5 amyloid-beta:compound concentration ratio measured immediately by scanning transmission electron microscopic analysis
[11] = biological target: Amyloid-beta precursor protein (Homo sapiens) (UniProt P05067); assay: Inhibition of amyloid beta (1 to 42) (unknown origin) self aggregation at 2 to 10 uM by ThT fluorescence assay; details: dose 2-10 µM
[12] = biological target: Amyloid-beta precursor protein (Homo sapiens) (UniProt P05067); assay: Inhibition of amyloid beta (1 to 42) (unknown origin) self aggregation by ThT fluorescence assay relative to control; details: concentration not given here

Compound | viability at 2 µM (PC-12 [1]) [%] | viability at 4 µM (PC-12 [2]) [%] | viability at 10 µM (PC-12 [3]) [%] | inhibition at 2 µM [4] [%] | inhibition at 4 µM [5] [%] | inhibition at 10 µM [6] [%] | inhibition [7] | inhibition [8] | inhibition [9] | inhibition [10] | inhibition [11] | inhibition [12] [%]
CC[C@H](C)[C@H](NC(=O)[C@@H](NC(=O)[C@@H](N)C(C)C)C(C)C)C(=O)N[C@@H](C)C(N)=O | 60.7 | 59.4 | 63.4 | 0 | 0 | 0 |  |  |  |  |  | 
CC[C@H](C)[C@H](NC(=O)[C@H](C)N)C(=O)N[C@H](C(=O)N[C@H](C(N)=O)C(C)C)C(C)C | 55.2 | 69 | 58.3 | 0 | 15 | 0 |  |  |  |  |  | 
CC[C@H](C)[C@H](NC(=O)[C@@H](NC(=O)C1CC2CCCCC2N1)C(C)C)C(=O)N[C@@H](C)C(N)=O (stereo partly specified) | 65.3 | 63.3 | 57.7 | 5 | 0 | 0 | Not active; Formation Of Small, Non-Fibrillar Like Amorphous Aggregates Observed | Not active; Formation Of Small, Non-Fibrillar Like Amorphous Aggregates Observed | Not active; Small Aggregates Observed | Not active; Small Aggregates Observed |  | 
CC[C@H](C)[C@H](NC(=O)[C@@H](NC(=O)C1Cc2ccccc2CN1)C(C)C)C(=O)N[C@@H](C)C(N)=O (stereo partly specified) | 68.8 | 62.4 | 61.8 | 14 | 0 | 0 |  |  |  |  | Active | 
CC[C@H](C)[C@H](NC(=O)[C@H](C)N)C(=O)N[C@H](C(=O)N[C@H](Cc1ccccc1)C(N)=O)C(C)C | 55.2 | 69.1 | 76.4 | 0 | 15 | 35 |  |  |  |  | Active | 
CC[C@@H](C)[C@@H](NC(=O)[C@H](NC(=O)[C@H](N)C(C)C)C(C)C)C(=O)N[C@H](C)C(N)=O | 73.3 | 65.6 | 64.1 | 27 | 6 | 1 |  |  |  |  |  | 
CC[C@H](C)[C@H](NC(=O)[C@H](N)Cc1ccccc1)C(=O)N[C@H](C(=O)N[C@H](C(N)=O)C(C)C)C(C)C | 68.4 | 54.7 | 67 | 13 | 0 | 9.3 |  |  |  |  |  | 
CC[C@@H](C)[C@@H](NC(=O)[C@@H](C)N)C(=O)N[C@@H](C(=O)N[C@@H](C(N)=O)C(C)C)C(C)C | 68.7 | 63.3 | 74.6 | 14 | 0 | 30 |  |  |  |  |  | 
CC[C@H](C)[C@H](NC(=O)C1Cc2ccccc2CN1C(=O)[C@@H](N)C(C)C)C(=O)N[C@@H](C)C(N)=O (stereo partly specified) | 95.4 | 80.3 | 76.1 | 87 | 46 | 34 |  |  |  |  | Active | > 50
CC[C@H](C)[C@H](NC(=O)[C@H](C)N)C(=O)N[C@H](C(=O)NC(C)(C)C(N)=O)C(C)C (H-AIV[Aib]-NH2) | 75.3 | 67 | 70.9 | 32 | 9 | 20 |  |  |  |  | Active | 
CC(C)[C@H](NC(=O)[C@@H](NC(=O)C(C)(C)NC(=O)[C@H](C)N)C(C)C)C(N)=O (H-A[Aib]VV-NH2) | 52.1 | 75.3 | 59.6 | 0 | 32 | 0 |  |  |  |  |  | 
CC[C@H](C)[C@H](NC(=O)[C@@H](NC(=O)[C@@H](N)C(C)C)C(C)C)C(=O)N[C@@H](Cc1ccccc1)C(N)=O (H-VVIF-NH2) | 85.6 | 83.6 | 66.9 | 60 | 55 | 9 |  |  |  |  |  | > 50
CC[C@H](C)[C@H](NC(=O)[C@@H](NC(=O)[C@@H](N)C(C)C)C(C)(C)C)C(=O)N[C@@H](C)C(N)=O (H-V[Tle]IA-NH2) | 77.7 | 78.8 | 74.9 | 39 | 42 | 31 |  |  |  |  | Active | 
CC[C@H](C)[C@H](NC(=O)C1CC2CCCCC2N1C(=O)[C@@H](N)C(C)C)C(=O)N[C@@H](C)C(N)=O (stereo partly specified) (H-V[ξOic]IA-NH2) | 64.1 | 78.6 | 62.1 | 1 | 41 | 0 |  |  |  |  |  | 
CC[C@H](C)[C@H](NC(=O)[C@@H](NC(=O)[C@@H](N)C(C)(C)C)C(C)C)C(=O)N[C@@H](C)C(N)=O (H-[Tle]VIA-NH2) | 79.9 | 61.1 | 64.6 | 45 | 0 | 3 |  |  |  |  |  | 
